Tests used:
retinal ganglion cells = test: Test Example 5: regeneration induction of mouse retinal neurons by eye drop in high intraocular pressure glaucoma model; type: in vivo; details: 100 μM eye drops to both eyes three times a day; 10 days to 1 month; vs control
Description: High intraocular glaucoma model mouse (transgenic lines specifically expressing green fluorescent protein (GFP) in retinal ganglion cells)
To an adult of a high intraocular pressure glaucoma model mouse, a solution prepared by dissolving 100 μM of the test compound in 1% methyl cellulose/physiological saline was administered by instillation to both eyes at […] per a time three times a day.
As a control experiment (control), an experiment of instilling 1% methyl cellulose/physiological saline containing no test compound was also performed.

pancreatic β cells = test: Test Example 9: pancreatic β cells and insulin in transgenic zebrafish embryos; type: in vivo; details: vs control
Description: Transgenic zebrafish expressing pancreatic β-cell GFP
Transgenic zebrafish embryos expressing pancreatic β-cell GFP at 10 hours after fertilization were held with the dorsal side of the head up on a coffin, and a glass capillary was inserted from the dorsal side into a gap just below the midline neural tube at about 2 times the distance between the rostral end and the ear vesicles to the caudal side (pancreatic primordium). A nitrogen gas pressure (15 picosiemens) was applied for 15 to 45 milliseconds, and the test compound was injected. The concentration of the test compound was 100 nM/E3, and 0.025% (final concentration) phenol red was mixed as a tracer of the infusion solution. The injection was performed in pulses with a foot pedal and continued until phenol red was distributed in an elliptical shape with a major axis of 200 μm from the insertion point.
The test compound (100 nM) was injected on a coffin in transgenic zebrafish embryos expressing pancreatic β-cell GFP at 10 hours after fertilization. After injection, embryos were cultured in E3 at 28.5° C. for 14 hours. After chorions were removed with tweezers, the embryos were fixed with 4% paraformaldehyde/PBS at room temperature for 1 hour, and in situ hybridization was performed overnight at 65° C. in the presence of a DIG probe of insulin (ins) according to a conventional method. After washing, β cells were stained by an alkali phosphatase color reaction using an anti-DIG antibody. After staining, the embryos were washed with PBS, embedded in 75% glycerin/PBS and localized, and then microscopically photographed with incident light. The number of test individuals was unified with n=100 for each test compound (FIG. 23).
Transgenic zebrafish embryos expressing pancreatic β-cell GFP at 10 hours after fertilization were injected with the test compound (100 nM or 5 nM) on the coffin. After injection, embryos were cultured in E3 at 28.5° C. for 20 hours in the presence of 0.2 mM phenylthiourea (PTU). After chorions were removed with tweezers, the embryos were fixed with 4% paraformaldehyde/PBS at normal temperature for 1 hour, immunohistochemically reacted with an anti-insulin antibody according to a conventional method, and then reacted with an Alexa fluor 488 anti-mouse IgG secondary antibody. The reacted embryos were washed with PBS, embedded in 75% glycerin/PBS and localized, and then microscopically photographed with 488 nm excitation light (FIG. 24). The number of tested individuals was unified with n=10 for each compound. The insulin amount was quantified by measuring the average fluorescence intensity in a circle with a radius of 100 μm centered on the fluorescence point (FIG. 25).

Purkinje cells = test: Test Example 6: increase in Purkinje cells of adult mouse after injection into E11.5 fetal ventricle; type: in vivo; details: test compounds = Compounds 1 to 7; 100 μM injected into E11.5 fetal ventricle, counted in adult mice; vs control; N=10
Description: A solution prepared by dissolving 100 μM of the test compound in physiological saline was injected into E11.5 mouse fetal ventricle. Brains of adult mouse individuals were fixed, and slice sections of cerebellar Purkinje cell layers were immunostained with an anti-d-Calbindin antibody, which is a marker of cell bodies and neurites of Purkinje cells. After staining, the number of Purkinje cells was counted, and the average value thereof was calculated.
As a control experiment (control), a similar experiment was performed using physiological saline containing no test compound.
The number of samples is 10 for each of Compounds 1 to 7 and control (N=10).

[1] = tested on: T-cell type acute lymphocytic leukemia model; test: Test Example 10: verification of anticancer effect in T-cell type acute lymphocytic leukemia model; type: in vivo, zebrafish
Description: T-cell type acute lymphocytic leukemia model specifically expressing GFP in vascular endothelial cells
A liquid agent prepared by adding a compound to E3 Ringer to adjust to 100 μM was microscopically injected into the body ventral main vessel of an embryo of a T cell-type acute lymphatic leukemia model individual 24 hours after fertilization. E3 Ringer was similarly microscopically injected as a control. At the time of microinjection, embryos were held on the body side up in a 3% methylcellulose/E3 Ringer/0.02% tricaine solution on a glass slide, and then a glass capillary was inserted into an abdominal main vessel running in the head-to-tail direction at the boundary between the body wall and egg yolk. Then, a nitrogen gas pressure (15 picosiemens) was applied for 30 to 45 milliseconds, and the mixture was injected into the blood vessel. At this time, 0.025% (final concentration) phenol red was mixed as a tracer of the injection solution. The amount to be injected was adjusted by applying gas pressure in a pulsed manner until a large blood vessel of the whole body became uniform and thin red due to blood flow. […]
In addition, survival rates of drug-injected individuals and control individuals were counted. […]

For CNS(=O)(=O)c1ccccc1Nc1nc(Nc2ccc(N3CCN(C)CC3)cc2OC)ncc1Cl [Compound 7, 2-[[5-Chloro-2-[2-methoxy-4-(4-methylpiperazin-1-yl)anilino]pyrimidin-4-yl]amino]-N-methylbenzenesulfonamide], the “amplification of retinal ganglion cells” value (retinal ganglion cells) was “amplification of retinal ganglion cells was remarkably observed”, the “number of β cells (pancreatic β-cell GFP fluorescence)” value (pancreatic β cells; 100 nM injected at pancreatic primordium 10 h after fertilization, observed up to 48 h) was “increased as compared with the control individual” and the “production amount of insulin by β cells (in situ hybridization, ins probe)” value (pancreatic β cells; 100 nM, 14 h after injection, n=100) was “significantly increased as compared with the control individual”. For the same compound, the “number of Purkinje cells in the cerebellar Purkinje cell layers” value (Purkinje cells) was “significantly higher than that of the control”, the “thickening and tumorigenesis of vascular endothelium” value ([1]; 100 μM injected into ventral main vessel at 24, 36 and 48 h after fertilization, observed at 56 h, vs control) was “thickening and tumorigenesis of the endothelium were observed” and the “survival rate on Day 28” value ([1]; leukemia model individuals injected with 100 μM, three tests, control 22.4%±4.56) was 55.9%±6.07.
